Reference: US5220050A, “Peptide mimetic compounds useful as platelet aggregation inhibitors” (G. D. Searle & Co., priority 1991, dated 1993)
Counter-ions that a name gives are not always drawn.

Legend:
[1] = system: Platelet Aggregation in Dog PRP; assay: In-Vitro Platelet Aggregation in PRP (ADP induced); format: cell-based; conditions: for IC50: Canis lupus familiaris, Platelet, in-vitro
Experimental: Healthy male or female dogs were fasted for 8 hours prior to drawing blood; then 30 ml whole blood was collected using a butterfly needle and 30 cc plastic syringe with 3 ml of 0.129 M buffered sodium citrate (3.8%). The syringe was rotated carefully as blood was drawn to mix the citrate. Platelet-rich plasma (PRP) was prepared by centrifugation at 975×g for 3.17 minutes at room temperature, allowing the centrifuge to coast to a stop without braking. The PRP was removed from the blood with a plastic pipette and placed in a plastic capped, 50 ml Corning conical sterile centrifuge tube which was held at room temperature. Platelet poor plasma (PPP) was prepared by centrifuging the remaining blood at 2000×g for 15 minutes at room temperature allowing the centrifuge to coast to a stop without braking. The PRP was adjusted with PPP to a count of 2-3×10^8 platelets per ml. 400 μl of the PRP preparation and 50 μl of the compound to be tested or saline were preincubated for 1 minute at 37° C. in a BioData aggregometer (BioData, Horsham, Pa.). 50 μl of adenosine 5'diphosphate (ADP) (50 μm final concentration) was added to the cuvettes and the aggregation was monitored for 1 minute. All compounds are tested in duplicate. Results are calculated as follows:
Percent of control=[(maximal OD minus initial OD of compound) divided by (maximal OD minus initial OD of control saline)]×100. The % inhibition=100-(percent of control).

[2] = system: collagen induced platelet aggregation; assay: Inhibition of ex vivo collagen induced aggregation after administration to dogs; format: in vivo, dogs (Beagles); conditions: dog, intragastric or intravenous; for inhibition in vivo at 10 mg/kg / inhibition in vivo at 30 mg/kg / inhibition in vivo at 20 mg/kg: Canis lupus familiaris, Platelet, read-out: Max % Inhibition
Experimental: The purpose of this assay is to determine the effects of antiplatelet compounds on ex vivo collagen induced platelet aggregation when administered either intravenously or orally to dogs.
Pretreatment (control) blood samples are drawn from either conscious or anesthetized dogs (Beagles) and centrifuged to prepare platelet rich plasma (PRP). Aggregatory response to collagen is measured in an aggregometer and used as Control.
In Table B the designation "NT" means "Not Tested". Also in Table B, two readings given in a single box indicate that two trials, rather than a single trial, were run for that particular compound in that particular assay.

`CC(CC(=O)O)NC(=O)CCCCc1ccc(C(=N)N)cc1` (stereo not drawn) [3-[[5-[4-(Aminoiminomethyl)phenyl]-1-oxopentyl]amino]butanoic acid] gave an IC50 [1] of 1.2 µM, an inhibition in vivo at 10 mg/kg ([2]; dose 10 mg/Kg) of 80% and a Duration ([2]; dose 10 mg/Kg) of 5 h.
`CCOC(=O)CC(C)NC(=O)CCCCc1ccc(C(=N)N)cc1` (stereo not drawn) [Ethyl 3-[[5-[4-(aminoiminomethyl)phenyl]-1-oxopentyl]amino]butanoate] gave an IC50 [1] of 5 µM, an inhibition in vivo at 10 mg/kg ([2]; dose 10 mg/Kg) of 90% and an inhibition in vivo at 30 mg/kg ([2]; dose 30 mg/Kg) of 100%. For the same compound, the Duration ([2]; dose 30 mg/Kg) was greater than 24 h.
`CCOC(=O)CC(NC(=O)CCCCc1ccc(C(=N)N)cc1)c1ccccc1` (stereo not drawn) [Ethyl β-[[5-[4-(aminoiminomethyl)phenyl]-1-oxopentyl]amino]benzenepropanoate] showed an IC50 [1] of 5.3 µM, an inhibition in vivo at 10 mg/kg ([2]; dose 10 mg/Kg) of 83% and an inhibition in vivo at 30 mg/kg ([2]; dose 30 mg/Kg) of 100%. It also gave a Duration ([2]; dose 30 mg/Kg) greater than 24 h.
`N=C(N)c1ccc(CCCCC(=O)NC(CC(=O)OC2CCCCC2)c2cccnc2)cc1` (stereo not drawn) [cyclohexyl β-[[5-[4-(aminoiminomethyl)phenyl]-1-oxopentyl]amino]-3-pyridinepropanoate] was tested, and the IC50 [1] was 2.3 µM, the inhibition in vivo at 10 mg/kg ([2]; dose 10 mg/Kg) was 87% and the Duration ([2]; dose 10 mg/Kg) was 3 h.
`C=CC(CC(=O)OCC)NC(=O)CCCCc1ccc(C(=N)N)cc1` (stereo not drawn) [ethyl 3-[[5-[4-(aminoiminomethyl)phenyl]-1-oxopentyl]amino]-4-pentenoate] showed an inhibition in vivo at 30 mg/kg ([2]; dose 30 mg/Kg) of 100%.
With `CCOC(=O)CC(CC(C)C)NC(=O)CCCCc1ccc(C(=N)N)cc1` (stereo not drawn) [ethyl 3-[[5-[4-(aminoiminomethyl)phenyl]-1-oxopentyl]amino]-5-methylhexanoate] the inhibition in vivo at 30 mg/kg ([2]; dose 30 mg/Kg) was 100% and the Duration ([2]; dose 30 mg/Kg) was greater than 6 h.
With `CCOC(=O)CC(NC(=O)CCCCc1ccc(C(=N)N)cc1)c1ccc2c(c1)OCO2` (stereo not drawn) [ethyl β-[[5-[4-(aminoiminomethyl)phenyl]-1-oxopentyl]amino]-1,3-benzodioxole-5-propanoate] the inhibition in vivo at 10 mg/kg ([2]; dose 10 mg/Kg) was 100% and the Duration ([2]; dose 10 mg/Kg) was 5 h.
In the case of `CCOC(=O)CC(NC(=O)CCCCc1ccc(C(=N)N)cc1)c1cc(OC)cc(OC)c1` (stereo not drawn) [ethyl β-[[5-[4-(aminoiminomethyl)phenyl]-1-oxopentyl]amino]-3,5-dimethoxybenzenepropanoate], the inhibition in vivo at 20 mg/kg ([2]; dose 20 mg/Kg) is reported as 70% and the Duration ([2]; dose 20 mg/Kg) is reported as 4 h.
`CCOC(=O)CC(NC(=O)CCCCc1ccc(C(=N)N)cc1)c1cccnc1` (stereo not drawn) [ethyl β-[[5-[4-(aminoiminomethyl)phenyl]-1-oxopentyl]amino]-3-pyridinepropanoate] showed an inhibition in vivo at 10 mg/kg ([2]; dose 10 mg/Kg) of 100%, an inhibition in vivo at 20 mg/kg ([2]; dose 20 mg/Kg) of 100% and a Duration ([2]; dose 20 mg/Kg) greater than 24 h.
Work on `CCOC(=O)CC(NC(=O)CCCCc1ccc(C(=N)N)cc1)c1ccc(OCC)cc1` (stereo not drawn) [ethyl β-[[5-[4-(aminoiminomethyl)phenyl]-1-oxopentyl]amino]-4-ethoxybenzenepropanoate] yielded an inhibition in vivo at 20 mg/kg ([2]; dose 20 mg/Kg) of 0% and a Duration ([2]; dose 20 mg/Kg) of 0 h.
`CCOC(=O)CC(NC(=O)CCCCc1ccc(C(=N)N)cc1)c1ccc(-c2ccccc2)cc1` (stereo not drawn) [ethyl β-[[5-[4-(aminoiminomethyl)phenyl]-1-oxopentyl]amino][1,1'-biphenyl]-4-propanoate] showed an inhibition in vivo at 30 mg/kg ([2]; dose 30 mg/Kg) of 0%.
`CCOC(=O)CC(Cc1ccccc1)NC(=O)CCCCc1ccc(C(=N)N)cc1` (stereo not drawn) [ethyl β-[[5-[4-(aminoiminomethyl)phenyl]-1-oxopentyl]amino]benzenebutanoate] gave an inhibition in vivo at 20 mg/kg ([2]; dose 20 mg/Kg) of 30% and a Duration ([2]; dose 20 mg/Kg) of 1.5 h.
`CCOC(=O)CC(CCc1ccccc1)NC(=O)CCCCc1ccc(C(=N)N)cc1` (stereo not drawn) [ethyl β-[[5-[4-(aminoiminomethyl)phenyl]-1-oxopentyl]amino]benzenepentanoate] gave an inhibition in vivo at 30 mg/kg ([2]; dose 30 mg/Kg) of 0%.
Work on `N=C(N)c1ccc(CCCCC(=O)NC(CC(=O)O)c2ccccc2)cc1` (stereo not drawn) [β-[[5-4-(aminoiminomethyl)phenyl]-1-oxopentyl]amino]benzenepropanoic acid, acetate salt] yielded an IC50 [1] of 5.3 µM, an inhibition in vivo at 30 mg/kg ([2]; dose 30 mg/Kg) of 34% and a Duration ([2]; dose 30 mg/Kg) of less than 2 h.
`N=C(N)c1ccc(CCCCC(=O)NC(CCCCc2ccccc2)CC(=O)O)cc1` (stereo not drawn) [β-[[5-[4-(aminoiminomethyl)phenyl]-1-oxopentyl]amino]benzeneheptanoic acid] gave an IC50 [1] of 7.1 µM.
In the case of `N=C(N)c1ccc(CCCCC(=O)NC(CCc2ccccc2)CC(=O)O)cc1` (stereo not drawn) [β-[[5-[4-(aminoiminomethyl)phenyl]-1-oxopentyl]amino]benzenepentanoic acid], the IC50 [1] is reported as 3 µM.
With “βR-[[5-[4-(aminoiminomethyl)phenyl]-1-oxopentyl]amino]-1-naphthalenebutanoic acid” the “% Inhibition” value ([1]; test concentration 1 × 10^-5) was 5%.
